Key:
Assay type in all cases: cell-based
EAAT5 = target: T1, EAAT5 (Homo sapiens, UniProt O00341); assay: Electrophysiology specificity experiment in transfected HEK293 cells, EAAT5; details: apparent Ki, HEK293, internal solution 10 mM glutamate, mean ± SD
T1 construct: expressed in transfected cells; host or cells: HEK293 (ATCC CRL-11268), transient transfection
Experimental: (§1) Human embryonic kidney 293 (HEK293, ATCC CRL-11268) cells were cultured in DMEM media supplemented with 10% (v v) fetal bovine serum (FBS), 2 mM glutamine, 1% penicillin streptomycin solution, 1 mM sodium pyruvate and non-essential amino acids. Cells were maintained at 37° C. in a fully humidified atmosphere containing 5% CO2. rASCT2, hASCT2, hASCT1, EAAT1, EAAT2, EAAC1, EAAT5 and YFP complementary DNAs were each used to transiently transfect HEK293 using POLYPLUS Jet-prime transfection reagent. Cells were analyzed using electrophysiological techniques 24-40 hours after transfection.
(§2) Stock solutions of inhibitor was prepared in dimethyl sulfoxide (DMSO) up to 100 mM. Dilutions to working concentrations were made using external buffer. […] For rASCT2, hASCT2 and hASCT1, external buffer contained 140 mM NaCl, 2 mM MgCl2, 2 mM CaCl2), and 10 mM HEPES, pH 7.40 while internal pipette solution comprised of 130 mM NaSCN, 2 mM MgCl2, 10 mM EGTA, 10 mM HEPES and 10 mM alanine, pH 7.40. For specificity experiments with EAAT1, EAAT2, EAAC1 and EAAT5, internal solution contained 10 mM glutamate instead of alanine. Compounds were applied to HEK293 cells expressing DNA of interest suspended from a current recording electrode in whole cell configuration through a rapid solution exchange device. Cells are immersed in external buffer bath used to dissolve the inhibitors. The open pipette resistance was between 3 and 6 MΩ. Series resistance was not compensated in these experiments due to relatively small currents. Currents traces were recorded using an Adams and List EPC7 amplifier and digitized using a Molecular Devices Digidata A/D converter.
(§3) Linear and nonlinear curve fitting of the experimental data were analyzed using MicroCal Origin software. Nonlinear dose-response relationships were fitted with a Michaelis-Menten-like equation to obtain apparent Ki values in the absence of substrate (see TABLE 2 for Ki values). The figures show representative current traces and dose-response curves for hACST2 and rASCT2, used to obtain Ki values in TABLE 2 for compound SN 40. At least four experiments were performed with at least three different cells. Error bars in all graphs, e.g., in FIG. 1B and FIG. 1C and tables (Ki values) represent mean±SD.

hASCT1 = target: T2, hASCT1 (Homo sapiens, UniProt P43007); assay: Electrophysiology (whole-cell current recording) of transfected HEK293 cells, hASCT1; details: apparent Ki in the absence of substrate, HEK293, mean ± SD; read-out: Ki hASCT1
T2 construct: expressed in transfected cells; host or cells: HEK293 (ATCC CRL-11268), transient transfection
T2 sequence (P43007 1-532): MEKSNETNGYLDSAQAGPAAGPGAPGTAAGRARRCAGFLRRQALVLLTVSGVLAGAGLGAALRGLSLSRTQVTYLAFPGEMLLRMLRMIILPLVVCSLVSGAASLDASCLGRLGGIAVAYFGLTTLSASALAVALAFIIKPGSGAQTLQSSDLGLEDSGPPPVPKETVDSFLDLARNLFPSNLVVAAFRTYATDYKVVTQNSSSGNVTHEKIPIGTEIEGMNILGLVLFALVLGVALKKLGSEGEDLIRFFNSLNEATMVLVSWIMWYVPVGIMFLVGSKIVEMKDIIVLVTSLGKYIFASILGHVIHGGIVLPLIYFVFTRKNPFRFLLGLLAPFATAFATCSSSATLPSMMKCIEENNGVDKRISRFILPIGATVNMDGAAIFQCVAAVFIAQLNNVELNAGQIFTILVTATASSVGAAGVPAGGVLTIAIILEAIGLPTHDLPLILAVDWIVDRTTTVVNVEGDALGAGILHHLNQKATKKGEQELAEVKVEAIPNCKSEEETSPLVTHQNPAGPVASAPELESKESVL
Experimental: as §1, §2, §3

hASCT2 = target: T3, hASCT2 (Homo sapiens, UniProt Q15758); assay: Electrophysiology (whole-cell current recording) of transfected HEK293 cells, hASCT2; details: apparent Ki in the absence of substrate, HEK293, mean ± SD; read-out: Ki hASCT2
T3 construct: expressed in transfected cells; host or cells: HEK293 (ATCC CRL-11268), transient transfection
T3 sequence (Q15758 1-541): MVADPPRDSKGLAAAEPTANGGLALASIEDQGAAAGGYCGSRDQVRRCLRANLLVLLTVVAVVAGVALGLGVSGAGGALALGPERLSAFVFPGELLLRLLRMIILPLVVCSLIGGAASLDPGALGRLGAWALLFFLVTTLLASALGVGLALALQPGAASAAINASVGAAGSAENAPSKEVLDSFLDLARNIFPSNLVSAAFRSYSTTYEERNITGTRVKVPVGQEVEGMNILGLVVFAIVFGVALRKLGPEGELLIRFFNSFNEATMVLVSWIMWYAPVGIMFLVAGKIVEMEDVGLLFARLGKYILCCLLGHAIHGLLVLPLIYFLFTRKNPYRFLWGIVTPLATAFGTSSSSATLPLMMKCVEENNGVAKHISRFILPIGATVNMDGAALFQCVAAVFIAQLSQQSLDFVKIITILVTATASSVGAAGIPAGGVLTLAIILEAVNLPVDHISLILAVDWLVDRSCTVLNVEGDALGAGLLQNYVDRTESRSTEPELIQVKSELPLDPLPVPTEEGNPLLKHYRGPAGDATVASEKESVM
Experimental: as §1, §2, §3

EAAT2 = target: T4, EAAT2 (Homo sapiens, UniProt P43004); assay: Electrophysiology specificity experiment in transfected HEK293 cells, EAAT2; details: apparent Ki, HEK293, internal solution 10 mM glutamate, mean ± SD; read-out: Ki EAAT2
T4 construct: expressed in transfected cells; host or cells: HEK293 (ATCC CRL-11268), transient transfection
T4 sequence (P43004 whole entry, species assumed): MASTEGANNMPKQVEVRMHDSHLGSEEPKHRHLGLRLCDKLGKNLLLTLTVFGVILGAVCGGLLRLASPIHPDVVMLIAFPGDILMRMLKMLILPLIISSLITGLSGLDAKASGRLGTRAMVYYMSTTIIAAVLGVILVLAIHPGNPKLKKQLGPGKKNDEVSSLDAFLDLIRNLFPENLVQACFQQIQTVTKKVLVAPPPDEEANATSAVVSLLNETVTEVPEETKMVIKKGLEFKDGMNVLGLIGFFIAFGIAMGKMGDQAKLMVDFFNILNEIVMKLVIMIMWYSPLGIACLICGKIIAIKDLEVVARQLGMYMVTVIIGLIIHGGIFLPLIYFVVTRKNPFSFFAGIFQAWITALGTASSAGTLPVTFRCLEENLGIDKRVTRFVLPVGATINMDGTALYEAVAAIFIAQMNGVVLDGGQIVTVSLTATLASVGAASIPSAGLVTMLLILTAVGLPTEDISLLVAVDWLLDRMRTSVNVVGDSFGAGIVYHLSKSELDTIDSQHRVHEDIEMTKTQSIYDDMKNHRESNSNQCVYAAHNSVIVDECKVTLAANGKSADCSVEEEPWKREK
Experimental: as §1, §2, §3

T1 sequence (O00341 whole entry, species assumed): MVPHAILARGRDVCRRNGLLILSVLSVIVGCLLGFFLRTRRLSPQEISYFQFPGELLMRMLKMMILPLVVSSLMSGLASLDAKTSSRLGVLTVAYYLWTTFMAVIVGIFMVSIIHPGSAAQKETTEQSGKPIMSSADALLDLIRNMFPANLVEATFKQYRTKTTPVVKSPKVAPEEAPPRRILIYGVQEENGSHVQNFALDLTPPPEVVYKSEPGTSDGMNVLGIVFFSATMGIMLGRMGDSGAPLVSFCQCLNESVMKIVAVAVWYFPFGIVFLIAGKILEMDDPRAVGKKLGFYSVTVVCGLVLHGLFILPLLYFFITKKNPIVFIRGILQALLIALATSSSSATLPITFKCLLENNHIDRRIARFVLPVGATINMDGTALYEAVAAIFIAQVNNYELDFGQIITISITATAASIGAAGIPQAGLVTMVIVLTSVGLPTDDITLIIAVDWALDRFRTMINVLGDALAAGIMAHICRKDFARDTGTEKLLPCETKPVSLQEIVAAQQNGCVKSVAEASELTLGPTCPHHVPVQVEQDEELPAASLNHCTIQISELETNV

Structure (SMILES) | Ki (EAAT5) | Ki (hASCT1) | Ki (hASCT2) | Ki (EAAT2)
Cc1ccccc1-c1ccc(C(=O)O[C@@H]2CN[C@H](C(=O)O)C2)cc1C [SN 11] | 1.17 ± 0.1 µM | 8.2 ± 0.8 µM | 9.13 ± 1.7 µM | 3.14 ± 0.5 µM
Cc1ccccc1-c1ccc(C(=O)O[C@@H]2CN[C@H](C(=O)O)C2)cc1 [SN 10] | 2.5 ± 0.9 µM | 1.33 ± 0.3 µM | 1.12 ± 0.1 µM | 1.3 ± 0.1 µM
O=C(O[C@@H]1CN[C@H](C(=O)O)C1)c1ccc(-c2ccc(F)cc2)cc1 [SN 08] | 2.4 ± 0.7 µM | 0.9 ± 0.1 µM | 0.74 ± 0.1 µM | 1.29 ± 0.3 µM
O=C(O[C@@H]1CN[C@H](C(=O)O)C1)c1ccc(-c2ccc(C(F)(F)F)cc2)cc1 [SN 09] | 1.09 ± 0.2 µM | 0.44 ± 0.1 µM | 1.05 ± 0.2 µM | 0.97 ± 0.1 µM
N[C@@H](COC(=O)c1ccc(NC(=O)c2ccccc2)cc1)C(=O)O [SN 25] | 12.3 ± 3.2 µM | 11.6 ± 1.8 µM | 22.6 ± 3.7 µM | 11 ± 1.3 µM

The remaining lines, values ahead:

Ki (EAAT5) | Ki (hASCT1) | Ki (hASCT2) | Ki (EAAT2) | Structure (SMILES)
2.22 ± 0.5 µM | 2.77 ± 0.1 µM | 0.87 ± 0.1 µM | 7.25 ± 1.5 µM | O=C(O[C@@H]1CN[C@H](C(=O)O)C1)c1ccc(-c2ccccc2)cc1 [SN 05]
 | 4.37 ± 0.8 µM | 7.93 ± 0.9 µM | 7.95 ± 1.1 µM | O=C(O[C@@H]1CN[C@H](C(=O)O)C1)c1ccc(-c2ccccc2)nc1 [SN 19]
1.41 ± 0.3 µM | 2.82 ± 0.1 µM | 0.98 ± 0.1 µM | 2.09 ± 0.5 µM | O=C(O)[C@@H]1C[C@H](OCc2ccc(-c3ccccc3)cc2)CN1 [SN 39]
